Assay results published in patent publication US10703765B2 (priority 2014, dated 2020).
Where a name gives a salt, the structure may show the parent alone.

The molecules below were run against human σ1 receptor (Homo sapiens, UniProt Q99720) (assay: biochemical). Conditions: not given.
Type: binding
Parameters: μ and σ1 dual binding: key to the marks not given beside the values

Sequence of human σ1 receptor (Q99720 whole entry): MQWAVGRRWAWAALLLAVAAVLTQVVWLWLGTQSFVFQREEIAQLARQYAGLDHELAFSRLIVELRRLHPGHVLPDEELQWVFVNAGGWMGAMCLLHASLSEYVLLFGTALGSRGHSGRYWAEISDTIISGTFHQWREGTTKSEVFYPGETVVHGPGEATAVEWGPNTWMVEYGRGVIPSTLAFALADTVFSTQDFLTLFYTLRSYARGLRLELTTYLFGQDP

Row | Structure (SMILES) | Ki [nM] | μ and σ1 dual binding
1 | CC1OC2(CCN(CCc3ccc(Cl)cn3)CC2)CN(c2ccccc2)C1=O (stereo not shown) [Example 38, 9-(2-(5-chloropypridin-2-yl)ethyl)-2-methyl-4-phenyl-1-oxa-4,9-diazaspiro[5.5]undecan-3-one hydrochloride] | < 500 | 
2 | CC1OC2(CCN(CCc3ccnc(C(F)(F)F)c3)CC2)CN(c2ccccc2)C1=O.Cl (stereo not shown) [Example 40, 2-methyl-4-phenyl-9-(2-(2-(trifluoromethyl)pyridin-4-yl)ethyl)-1-oxa-4,9-diazaspiro[5.5]undecan-3-one hydrochloride] |  | ++
3 | CC1OC2(CCN(CCc3ncccc3Cl)CC2)CN(c2cnccc2C(F)(F)F)C1=O.Cl (stereo not shown) [Example 44, 9-(2-(3-chloropyridin-2-yl)ethyl)-2-methyl-4-(4-(trifluoromethyl)pyridin-3-yl)-1-oxa-4,9-diazaspiro[5.5]undecan-3-one hydrochloride] |  | ++
4 | CC1OC2(CCN(CCc3cccc(C(F)(F)F)n3)CC2)CN(Cc2ccc(F)cn2)C1=O.Cl (stereo not shown) [Example 49, 4-((5-fluoropyridin-2-yl)methyl)-2-methyl-9-(2-(6-(trifluoromethyl)pyridin-2-yl)ethyl)-1-oxa-4,9-diazaspiro[5.5]undecan-3-one hydrochloride] |  | ++
5 | CC1OC2(CCN(CCc3ccncc3Cl)CC2)CN(c2ccccc2)C1=O (stereo not shown) [Example 50, 9-(2-(3-chloropyridin-4-yl)ethyl)-2-methyl-4-phenyl-1-oxa-4,9-diazaspiro[5.5]undecan-3-one hydrochloride] | < 500 | 
6 | CC1OC2(CCN(CCc3cccs3)CC2)CN(c2ccccc2)C1=O (stereo not shown) [Example 53, 2-methyl-4-phenyl-9-(2-(thiophen-2-yl)ethyl)-1-oxa-4,9-diazaspiro[5.5]undecan-3-one] | < 100 | 
7 | COc1ccccc1CCN1CCC2(CC1)CN(c1ccccc1)C(=O)C(C)O2 (stereo not shown) [Example 57, 9-(2-methoxyphenethyl)-2-methyl-4-phenyl-1-oxa-4,9-diazaspiro[5.5]undecan-3-one hydrochloride] | < 100 | 
8 | CC1OC2(CCN(CC3CCOCC3)CC2)CN(c2ccccc2)C1=O.Cl (stereo not shown) [Example 59, 2-methyl-4-phenyl-9-((tetrahydro-2H-pyran-4-yl)methyl)-1-oxa-4,9-diazaspiro[5.5]undecan-3-one hydrchloride] |  | ++
9 | CC1OC2(CCN(CCCc3ccccc3)CC2)CN(c2ccccc2)C1=O (stereo not shown) [Example 60, 2-methyl-4-phenyl-9-(3-phenylpropyl)-1-oxa-4,9-diazaspiro[5.5]undecan-3-one hydrochloride] | < 500 | 
10 | Cc1ncsc1CCN1CCC2(CC1)CN(c1ccccc1)C(=O)C(C)O2 (stereo not shown) [Example 61, 2-methyl-9-(2-(4-methylthiazol-5-yl)ethyl)-4-phenyl-1-oxa-4,9-diazaspiro[5.5]undecan-3-one hydrochloride] | < 500 | 
11 | CC1OC2(CCN(CCn3ccc4ccccc43)CC2)CN(c2ccccc2)C1=O (stereo not shown) [Example 62, 9-(2-(1H-indol-1-yl)ethyl)-2-methyl-4-phenyl-1-oxa-4,9-diazaspiro[5.5]undecan-3-one hydrochloride] | < 100 | 
12 | CC1OC2(CCN(CCn3ccc4cccnc43)CC2)CN(c2ccccc2)C1=O.Cl (stereo not shown) [Example 69, 9-(2-(1H-pyrrolo[2,3-b]pyridin-1-yl)ethyl)-2-methyl-4-phenyl-1-oxa-4,9-diazaspiro[5.5]undecan-3-one hydrochloride] |  | ++
13 | COC(=O)c1ccc(CCN2CCC3(CC2)CN(c2ccccc2)C(=O)C(C)O3)cc1.Cl (stereo not shown) [Example 70, methyl 4-(2-(2-methyl-3-oxo-4-phenyl-1-oxa-4,9-diazaspiro[5.5]undecan-9-yl)ethyl)benzoate hydrochloride] |  | ++
14 | CC1OC2(CCN(CCOc3ccccc3)CC2)CN(c2ccccc2)C1=O.Cl (stereo not shown) [Example 72, 2-methyl-9-(2-phenoxyethyl)-4-phenyl-1-oxa-4,9-diazaspiro[5.5]undecan-3-one hydrochloride] |  | ++
15 | CC1OC2(CCN(CCc3ccc(C#N)cc3)CC2)CN(c2ccccc2)C1=O.Cl (stereo not shown) [Example 76, 4-(2-(2-methyl-3-oxo-4-phenyl-1-oxa-4,9-diazaspiro[5.5]undecan-9-yl)ethyl)benzonitrile hydrochloride] |  | ++

Same assay, conditions: combined class from Ki-σ1 (human σ1 receptor, A1) and Ki-μ (human μ-opioid receptor, A2) radioligand binding

Row | Structure (SMILES) | μ and σ1 dual binding
16 | CC1OC2(CCN(CCc3cc(C#N)ccn3)CC2)CN(c2ccccc2)C1=O (stereo not shown) [Example 41, 2-(2-(2-methyl-3-oxo-4-phenyl-1-oxa-4,9-diazaspiro[5.5]undecan-9-yl)ethyl)isonicotinonitrile] | ++
17 | COc1ccc(CCN2CCC3(CC2)CN(c2ccccc2)C(=O)CO3)cc1 [Example 52, 9-(4-methoxyphenethyl)-4-phenyl-1-oxa-4,9-diazaspiro[5.5]undecan-3-one] | ++
18 | CC1OC2(CCN(CCn3cccn3)CC2)CN(c2ccccc2)C1=O (stereo not shown) [Example 56] | ++

Same assay, conditions: read-out: μ and σ1 dual binding

Row | Structure (SMILES) | Ki [nM]
19 | CC(C)C1OC2(CCN(CCc3cccnc3[N+](=O)[O-])CC2)CN(c2ccccc2F)C1=O (stereo not shown) [Example 39, 4-(2-fluorophenyl)-2-isopropyl-9-(2-(2-nitropyridin-3-yl)ethyl)-1-oxa-4,9-diazaspiro[5.5]undecan-3-one] | > 500
20 | CC1OC2(CCN(CCc3cccc(N)n3)CC2)CN(c2cnccc2C(F)(F)F)C1=O (stereo not shown) [Example 42, 9-(2-(6-aminopyridin-2-yl)ethyl)-2-methyl-4-(4-(trifluoromethyl)pyridin-3-yl)-1-oxa-4,9-diazaspiro[5.5]undecan-3-one hydrochloride] | > 500
21 | CC1OC2(CCN(CCc3cccnc3[N+](=O)[O-])CC2)CN(c2cnccc2C(F)(F)F)C1=O (stereo not shown) [Example 43, 2-methyl-9-(2-(2-nitropyridin-3-yl)ethyl)-4-(4-(trifluoromethyl)pyridin-3-yl)-1-oxa-4,9-diazasprio[5.5]undecan-3-one] | > 500
22 | CC1OC2(CCN(CCc3ncccc3Cl)CC2)CN(Cc2ccc(C(F)(F)F)cn2)C1=O (stereo not shown) [Example 45, 9-(2-(3-chloropyridin-2-yl)ethyl)-2-methyl-4-((5-(trifluoromethyl)pyridin-2-yl)methyl)-1-oxa-4,9-diazaspiro[5.5]undecan-3-one hydrochloride] | < 100
23 | CC1OC2(CCN(CCc3ncccc3Cl)CC2)CN(Cc2ccc(F)cn2)C1=O (stereo not shown) [Example 46, 9-(2-(3-chloropyridin-2-yl)ethyl)-4-((5-fluoropyridin-2-yl)methyl)-2-methyl-1-oxa-4,9-diazaspiro[5.5]undecan-3-one hydrochloride] | < 500
24 | CC1OC2(CCN(CCc3ncccc3F)CC2)CN(Cc2ccc(F)cn2)C1=O (stereo not shown) [Example 47, 9-(2-(3-fluoropyridin-2-yl)ethyl)-4-((5-fluoropyridin-2-yl)methyl)-2-methyl-1-oxa-4,9-diazaspiro[5.5]undecan-3-one hydrochloride] | < 500
25 | CC1OC2(CCN(CCc3ncccc3F)CC2)CN(c2cccnc2C(F)(F)F)C1=O (stereo not shown) [Example 48, 9-(2-(3-fluoropyridin-2-yl)ethyl)-2-methyl-4-(2-(trifluoromethyl)pyridin-3-yl)-1-oxa-4,9-diazaspiro[5.5]undecan-3-one] | > 500
26 | CC1OC2(CCN(CCc3cccc(F)c3)CC2)CN(c2ccccc2)C1=O (stereo not shown) [Example 54, 9-(3-fluorophenethyl)-2-methyl-4-phenyl-1-oxa-4,9-diazaspiro[5.5]undecan-3-one hydrochloride] | < 100
27 | CC1OC2(CCN(CCc3ccc(F)cc3)CC2)CN(c2ccccc2)C1=O (stereo not shown) [Example 55, 9-(4-fluorophenethyl)-2-methyl-4-phenyl-1-oxa-4,9-diazaspiro[5.5]undecan-3-one hydrochloride] | < 100
28 | CC1OC2(CCN(CCc3ccccn3)CC2)CN(c2ccccc2)C1=O (stereo not shown) [Example 58, 2-methyl-4-phenyl-9-(2-(pyridin-2-yl)ethyl)-1-oxa-4,9-diazaspiro[5.5]undecan-3-one] | < 100
29 | COC(=O)CCN1CCC2(CC1)CN(c1ccccc1)C(=O)C(C)O2 (stereo not shown) [Example 64, methyl 3-(2-methyl-3-oxo-4-phenyl-1-oxa-4,9-diazaspiro[5.5]undecan-9-yl)propanoate] | > 500
30 | CC1OC2(CCN(CCN3CCOCC3)CC2)CN(c2ccccc2)C1=O (stereo not shown) [Example 65, 2-methyl-9-(2-morpholinoethyl)-4-phenyl-1-oxa-4,9-diazaspiro[5.5]undecan-3-one] | > 500
31 | CC1OC2(CCN(CCc3ccc([N+](=O)[O-])cc3)CC2)CN(c2ccccc2)C1=O (stereo not shown) [Example 66, 2-methyl-9-(4-nitrophenethyl)-4-phenyl-1-oxa-4,9-diazaspiro[5.5]undecan-3-one] | > 500
32 | CC1OC2(CCN(CCc3cccc([N+](=O)[O-])c3)CC2)CN(c2ccccc2)C1=O (stereo not shown) [Example 67, 2-methyl-9-(3-nitrophenethyl)-4-phenyl-1-oxa-4,9-diazaspiro[5.5]undecan-3-one] | > 500
33 | CC1OC2(CCN(CCc3ccccc3[N+](=O)[O-])CC2)CN(c2ccccc2)C1=O (stereo not shown) [Example 68, 2-methyl-9-(2-nitrophenethyl)-4-phenyl-1-oxa-4,9-diazapspiro[5.5]undecan-3-one] | > 500
34 | CC1OC2(CCN(CC(=O)Nc3ccccc3)CC2)CN(c2ccccc2)C1=O (stereo not shown) [Example 71, 2-(2-methyl-3-oxo-4-phenyl-1-oxa-4,9-diazaspiro[5.5]undecan-9-yl)-N-phenylacetamide] | > 500
35 | CC1OC2(CCN(CCc3cccnc3)CC2)CN(c2ccccc2)C1=O (stereo not shown) [Example 73, 2-methyl-4-phenyl-9-(2-(pyridin-3-yl)ethyl)-1-oxa-4,9-diazaspiro[5.5]undecan-3-one] | < 500
36 | CC1OC2(CCN(CCn3c(=O)oc4ccccc43)CC2)CN(c2ccccc2)C1=O (stereo not shown) [Example 74, 3-(2-(2-methyl-3-oxo-4-phenyl-1-oxa-4,9-diazaspiro[5.5]undecan-9-yl)ethyl)benzo[d]oxazol-2(3H)-one hydrochloride] | < 500
37 | CC1OC2(CCN(CCc3cccc(C#N)c3)CC2)CN(c2ccccc2)C1=O (stereo not shown) [Example 75, 3-(2-(2-methyl-3-oxo-4-phenyl-1-oxa-4,9-diazaspiro[5.5]undecan-9-yl)ethyl)benzonitrile hydrochloride] | < 100
